According to patent US11918662B2, “Heterocyclic compounds and imaging agents for imaging huntingtin protein” (CHDI Foundation, Inc., priority 2020, dated 2024):

Biological target: T1, MBP-HTT(1-89)Q46-His(6×) (“Exon1-Q46”) protein aggregates (Homo sapiens, UniProt P42858, INS38QQQQQQQQQQQQQQQQQQQQQQQQQ)
T1 construct: MBP-HTT(1-89)Q46-His(6×); His(6×) (C); made in house
Assay: Exon1-Q46 Radioligand Binding Assay
Conditions: displacement of 0.3 nM [3H3-methyl]-5-((5-methoxypyridin-2-yl)methoxy)-2-(pyrazin-2-yl)benzo[d]oxazole from 1 μM aggregated Exon1-Q46, 60 minutes at 37° C.; read-out: Potency Range (IC50)
Description: Exon1-Q46 Radioligand Binding Assay
For experiments 30 μM MBP-Exon1-Q46 was incubated with 150 μg/mL thrombin in assay buffer (150 mM NaCl, 50 mM Tris pH 8.0) and 2 mM CaCl2 for 16 hours at 37° C. Aggregated Exon1-Q46 was pelleted by centrifugation for 5 minutes at 13,000 rpm in a bench top centrifuge and re-dissolved in the same volume of assay buffer. […] For the RBA, Q46 protein aggregates and test compounds were pre-incubated in assay buffer for 20 minutes at room temperature, in 100 μL/well in a 96-well plate (pp, round bottom). Then, ligand was added in 50 μL/well and incubated for 60 minutes at 37° C. Final assay concentrations were […] test compound, 1 μM Exon1-Q46 protein (equivalent monomer concentration) and 0.3 nM ligand [^3H3-methyl]-5-((5-methoxypyridin-2-yl)methoxy)-2-(pyrazin-2-yl)benzo[d]oxazole. Samples were transferred onto GF/B filter plates and washed 2× with 200 μL PBS using a Filtermate Harvester. After drying filter plates for 1 hour at 55° C., the back of the plates were sealed with foil and 30 μL/well scintillation fluid (Packard MicroScint 40) added, incubated for 15 minutes in the dark and counted in a MicroBeta reader. […] IC50 values were determined with a sigmoidal inhibition model with four variables (top, bottom, slope, IC50) in a global fit using the normalized replicate data.

T1 sequence (P42858 with tags, fused parts or gaps with the stated changes limits assumed): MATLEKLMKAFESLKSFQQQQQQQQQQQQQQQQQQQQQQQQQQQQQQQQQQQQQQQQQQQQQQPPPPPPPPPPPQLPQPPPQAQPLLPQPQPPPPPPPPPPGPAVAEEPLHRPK

Compound	IC50
Cc1ccc(NC(=O)CCCn2c(=O)c3cccn3c3cnccc32)cc1 [Example 6-1]	< 100 nM
COc1ccc2c(c1)n(CCCC(=O)Nc1ccc(C)cc1)c(=O)c1cccn12 [Example 5-6]	< 100 nM
C[C@@H]1CN(C(=O)CCn2c(=O)c3cccn3c3ccc(F)cc32)C[C@H]1C [Example 1-49]	< 100 nM
COc1cccc(NC(=O)CCCn2c(=O)c3nccn3c3ccc(F)cc32)c1 [Example 5-11]	< 100 nM
COc1cccc(NC(=O)CCCn2c(=O)c3cccn3c3ccc(F)cc32)c1 [Example 1-14]	< 100 nM
O=C(CCCn1c(=O)c2cccn2c2ccc(F)cc21)Nc1ccc(Cl)cc1 [Example 1-26]	< 100 nM
O=C(CCCn1c(=O)c2cccn2c2ccc(F)cc21)NCc1cccnc1 [Example 1-7]	100 to 500 nM
CN(C)CCNC(=O)CCCn1c(=O)c2cccn2c2ccc(F)cc21 [Example 1-30]	500 to 10000 nM
O=C(CCn1c(=O)c2cccn2c2ccc(F)cc21)Nc1ccccc1 [Example 3-22]	< 100 nM
COc1ccc(N(C)C(=O)CCn2c(=O)c3cccn3c3ccc(F)cc32)cc1 [Example 3-14]	< 100 nM
O=C(CCn1c(=O)c2cccn2c2ccc(F)cc21)Nc1ccccc1Cl [Example 3-15]	< 100 nM
COc1ccnc(NC(=O)CCCn2c(=O)c3cccn3c3ncccc32)c1 [Example 4-4]	< 100 nM
COC1CCN(C(=O)CCn2c(=O)c3cccn3c3ccc(F)cc32)C1 (stereo not drawn) [Example 3-40]	< 100 nM
O=C(CCn1c(=O)c2cccn2c2ccc(F)cc21)NC1CCCCC1 [Example 3-34]	< 100 nM
O=C(CCn1c(=O)c2cccn2c2ccc(F)cc21)N1CCc2cnccc2C1 [Example 3-51]	< 100 nM
Cc1ccccc1NC(=O)CCn1c(=O)c2cccn2c2ccc(F)cc21 [Example 3-27]	< 100 nM
C[C@@H]1CN(C(=O)CCCn2c(=O)c3cccn3c3ccc(F)cc32)C[C@@H](C)O1 [Example 1-1, 5-{4-[(2R,6R)-2,6-Dimethylmorpholin-4-yl]-4-oxobutyl}-7-fluoro-4H,5H-pyrrolo[1,2-a]quinoxalin-4-one]	< 100 nM
O=C(CCCn1c(=O)c2cccn2c2cccnc21)NC1CCCCCC1 [Example 4-10]	< 100 nM
O=C(CCn1c(=O)c2cccn2c2ccc(F)cc21)NCC1CCCCC1 [Example 3-35]	< 100 nM
COc1ccnc(NC(=O)CCn2c(=O)c3cccn3c3ccc(F)cc32)c1 [Example 3-13]	< 100 nM
O=C(CCn1c(=O)c2cccn2c2ccc(F)cc21)Nc1cccnc1 [Example 3-23]	< 100 nM
O=C(CCCn1c(=O)c2cccn2c2ccc(F)cc21)NC1CCCC1 [Example 1-28]	100 to 500 nM
O=C(CCn1c(=O)c2cccn2c2ccc(F)cc21)N1CCc2cccnc21 [Example 3-53]	< 100 nM
COc1ccnc(NC(=O)CCCn2c(=O)c3cccn3c3cccnc32)c1 [Example 4-8]	< 100 nM

Compound	IC50
Cc1ccc(NC(=O)CCCn2c(=O)c3cccn3c3cccnc32)cc1 [Example 4-6]	< 100 nM
O=C(CCn1c(=O)c2cccn2c2ccc(F)cc21)N1CCc2ccncc21 [Example 3-57]	< 100 nM
COc1cccc(NC(=O)CCCn2c(=O)c3cccn3c3ccc(OC)cc32)c1 [Example 5-8]	< 100 nM
Cc1ccc(NC(=O)CCCn2c(=O)c3nccn3c3ccc(F)cc32)cc1 [Example 5-12]	< 100 nM
COc1cccc(NC(=O)CCCn2c(=O)c3cccn3c3ccccc32)c1 [Example 5-3]	< 100 nM
O=C(CCn1c(=O)c2cccn2c2ccc(F)cc21)N1Cc2ccccc2C1 [Example 3-31]	< 100 nM
COc1ccc(NC(=O)CCn2c(=O)c3cccn3c3ccc(F)cc32)cc1 [Example 3-3]	< 100 nM
O=C(CCCn1c(=O)c2cccn2c2ccc(F)cc21)NCc1ccccc1 [Example 1-15]	< 100 nM
CN(C)CCNC(=O)CCn1c(=O)c2cccn2c2ccc(F)cc21 [Example 3-39]	100 to 500 nM
COc1ccc(NC(=O)CCn2c(=O)c3c(C)ccn3c3ccc(F)cc32)nc1 [Example 3-60]	< 100 nM
COC1CCCN(C(=O)CCCn2c(=O)c3cccn3c3ccc(F)cc32)C1 (stereo not drawn) [Example 1-42]	< 100 nM
O=C(CCn1c(=O)c2cccn2c2ccc(F)cc21)Nc1ccncc1 [Example 3-18]	< 100 nM
Cc1ccc(NC(=O)CCCn2c(=O)c3cccn3c3ccc(F)cc32)cc1 [Example 1-10]	< 100 nM
O=C(CCn1c(=O)c2cc(F)cn2c2ccc(F)cc21)N1Cc2cccnc2C1 [Example 3-65]	< 100 nM
COc1ccc(NC(=O)CCCn2c(=O)c3cccn3c3ccc(OC)cc32)nc1 [Example 5-9]	< 100 nM
Cc1ccc(NC(=O)CCNc2cc(F)ccc2-n2cccn2)cc1 [Example 3-69]	100 to 500 nM
COc1ccc(NC(=O)CCCn2c(=O)c3cccn3c3ccc(OC)cc32)cc1 [Example 5-7]	< 100 nM
COc1ccc(NC(=O)CCCn2c(=O)c3cccn3c3cnccc32)nc1 [Example 6-4]	< 100 nM
COC1CCC(NC(=O)CCCn2c(=O)c3cccn3c3ccc(F)cc32)CC1 (stereo not drawn) [Example 1-32]	100 to 500 nM
COc1cccc(NC(=O)CCCn2c(=O)c3cccn3c3cnccc32)c1 [Example 6-3]	< 100 nM
O=C(CCn1c(=O)c2cccn2c2ccc(F)cc21)N1CCc2ccncc2C1 [Example 3-52]	< 100 nM
O=C(CCn1c(=O)c2cccn2c2ccc(F)cc21)N1CCCC(C(F)(F)F)C1 (stereo not drawn) [Example 3-41]	< 100 nM
CCNC(=O)CCCn1c(=O)c2cccn2c2ccc(F)cc21 [Example 1-34]	100 to 500 nM

Further lines, results first:

IC50	Compound
< 100 nM	[2H]C(C(=O)Nc1ccc(F)cc1F)C([2H])([2H])n1c(=O)c2cnn(C)c2c2ccc(F)cc21 (stereo not drawn) [Example 20-1]
< 100 nM	COc1ccc(CCCn2c(=O)c3cccn3c3ccc(F)cc32)cn1 [Example 18-1, 7-Fluoro-5-[3-(6-methoxy-3-pyridyl)propyl]pyrrolo[1,2-a]quinoxalin-4-one]
< 100 nM	COc1ccccc1NC(=O)CCn1c(=O)c2cnn(C)c2c2ccc(F)cc21 [Example 9-3]
< 100 nM	Cn1ncc2c(=O)n(CCC(=O)Nc3ccc(F)cc3F)c3cccc(F)c3c21 [Example 21-3]
500 to 10000 nM	Cn1ncc2c(=O)n(CCC(=O)O)c3cc(F)ccc3c21 [Example 9-31]
< 100 nM	O=C(CCCn1c(=O)c2cccn2c2ccc(F)cc21)N1CCOCC1 [Example 29-1]
< 100 nM	COc1ccc(OCCCn2c(=O)c3cccn3c3ccc(F)cc32)nc1 [Example 11-1, 7-Fluoro-5-{3-[(5-methoxypyridin-2-yl)oxy]propyl}-4H,5H-pyrrolo[1,2-a]quinoxalin-4-one]
< 100 nM	Cc1ccc(C(=O)NCCn2c(=O)c3cccn3c3ccc(F)cc32)cc1 [Example 12-1, N-[2-(7-Fluoro-4-oxo-pyrrolo[1,2-a]quinoxalin-5-yl)ethyl]-4-methyl-benzamide]
< 100 nM	Cc1ccc(C(=O)NCCCn2c(=O)c3cccn3c3ccc(F)cc32)cc1 [Example 12-2]
< 100 nM	O=C(CCn1c(=O)c2ccnn2c2ccc(F)cc21)N1CCc2ncccc21 [Example 8-4]
< 100 nM	C[C@@H]1CN(C(=O)CCn2c(=O)c3cnn(C)c3c3ccc(F)cc32)C[C@H]1C [Example 9-24]
< 100 nM	Cn1ncc2c(=O)n(CCC(=O)N3Cc4ccncc4C3)c3cc(F)ccc3c21 [Example 9-12]
< 100 nM	O=c1c2cccn2c2ccc(F)cc2n1CCCN1CCc2ccccc2C1 [Example 13-2]
< 100 nM	COc1ncccc1NC(=O)CCn1c(=O)c2ccnn2c2ccc(F)cc21 [Example 8-3]
< 100 nM	O=C(CCCn1c(=O)c2cccn2c2ccc(Br)cc21)N1CCCCC1 [Example 29-5]
< 100 nM	Cn1ncc2c(=O)n(CCC(=O)N3CCc4ccncc43)c3cc(F)ccc3c21 [Example 9-9]
< 100 nM	COc1ccccc1NC(=O)CCn1c(=O)c2ccnn2c2ccc(F)cc21 [Example 8-5]
< 100 nM	Cn1ncc2c(=O)n(CCC(=O)N3CCc4ccccc43)c3cc(F)ccc3c21 [Example 9-2]
< 100 nM	Cn1ncc2c(=O)n(CCC(=O)Nc3ccc(F)cc3F)c3ccc(F)cc3c21 [Example 21-2]
< 100 nM	Cn1ncc2c(=O)n(CCC(=O)Nc3cccc(F)c3)c3cc(F)ccc3c21 [Example 9-30]
< 100 nM	Cn1ncc2c(=O)n(CCC(=O)N3CCc4ccccc4C3)c3cc(F)ccc3c21 [Example 9-14]
< 100 nM	COc1ccc(NC(=O)CCn2c(=O)c3ccc(Cl)n3c3ccc(F)cc32)nc1 [Example 7-1]
< 100 nM	Cc1ccc(NC(=O)CCn2c(=O)c3cccn3c3ccccc32)cc1 [Example 29-4]
< 100 nM	O=c1c2cccn2c2ccc(F)cc2n1CCN1CCc2ccccc2C1 [Example 13-1, 7-Fluoro-5-[2-(1,2,3,4-tetrahydroisoquinolin-2-yl)ethyl]-4H,5H-pyrrolo[1,2-a]quinoxalin-4-one]
< 100 nM	Cn1ncc2c(=O)n(CCC(=O)Nc3ccc(F)cc3F)c3cc(F)c(F)cc3c21 [Example 21-1]
